{
  "source": "patent US20170151200A1",
  "about": "“PROPHYLACTIC OR THERAPEUTIC AGENT FOR IDIOPATHIC INFLAMMATORY MYOPATHIES” (EA Pharma Co., Ltd., priority 2012, published 2017)",
  "key": {"[1]": {"tested_on": "C-protein-induced mouse myositis model (CIM mouse)", "assay": "Sectional area of fast muscle fiber (MHC IIB-positive) of triceps in CIM mouse", "assay_type": "in vivo", "settings": "triceps 21 days after immunization, 0.75 g/kg BCAA or 20 mg/kg PSL oral, histogram shift toward the left side = atrophy, FIG. 4", "protocol": "(§1) Using C-protein-induced mouse myositis model (C-protein-induced Myositis: CIM), the effect of BCAA on the inflammation of muscular tissues was examined. For antigen immunization of C57BL/6 mouse (female, 8-week-old), an adjuvant containing 200 μg C-protein and 100 μg killed tuberculosis bacterium (Mycobacterium butyricum), and Complete Freund's adjuvant (CFA) as a component was intradermally injected to the hindpaw sole and tail base, C-protein-free CFA injected to the base of forelimb, and 0.25 μg pertussis toxin was intraperitoneally injected. As an adjuvant control without immunization with an antigen, CFA was intradermally injected to the same sites. […] After 21 days from immunization, the muscle was collected, and the levels of inflammation of quadriceps and flexor muscles were evaluated by the inflammation score.\nSince steroid myopathy is predominantly developed in the fast muscle fiber (MHC IIB-positive fiber), atrophy of the muscle fiber of the CIM mouse was evaluated by measuring the sectional area of the muscle fiber. The boundary area of the fast muscle fiber and the muscle fiber of the section of the triceps collected 21 days after the immunization was labeled by immune fluorescent staining using anti-MHC IIB antibody and anti-Laminin antibody (Sigma), and the sectional area of the MHC IIB-positive muscle fiber was measured using Image J software (NIH). […]"}, "[2]": {"tested_on": "C-protein-induced mouse myositis model (CIM mouse)", "assay": "Forelimb muscle strength by grip dynamometer in CIM mouse", "assay_type": "in vivo", "settings": "20 days after immunization", "protocol": "as §1\nAfter 20 days from immunization, the muscle strength of the forelimb of each mouse was measured by a veterinary grip dynamometer MK-380CM/R (Muromachi Kikai Co., Ltd.). The measurement was performed 6 times for each animal, and the average thereof was determined. […]\nThe muscle strength of the forelimb of each mouse was measured after 20 days from the immunization in Example 5 using veterinary grip dynamometer MK-380CM/R (Muromachi Kikai Co., Ltd.). The measurement was performed 6 times for each animal, and the average thereof was determined."}, "[3]": {"tested_on": "C-protein-induced mouse myositis model (CIM mouse)", "assay": "Inflammation score of muscular tissue in C-protein-induced mouse myositis model (CIM)", "assay_type": "in vivo", "settings": "0.75 g/kg BCAA or 20 mg/kg PSL oral consecutively from 3 days after immunization, 21 days after immunization, vs Vehicle group, FIG. 1", "protocol": "Using C-protein-induced mouse myositis model (C-protein-induced Myositis: CIM), the effect of BCAA on the inflammation of muscular tissues was examined. For antigen immunization of C57BL/6 mouse (female, 8-week-old), an adjuvant containing 200 μg C-protein and 100 μg killed tuberculosis bacterium (Mycobacterium butyricum), and Complete Freund's adjuvant (CFA) as a component was intradermally injected to the hindpaw sole and tail base, C-protein-free CFA injected to the base of forelimb, and 0.25 μg pertussis toxin was intraperitoneally injected. As an adjuvant control without immunization with an antigen, CFA was intradermally injected to the same sites. From three days after immunization, 0.75 g/kg BCAA (mixture of isoleucine, leucine and valine at a weight ratio of isoleucine:leucine:valine=1:2:1.2) or 20 mg/kg Prednisolone (PSL) was orally administered consecutively, and they were used as the BCAA administration group and the PSL administration group, respectively. In addition, 0.5% methylcellulose and 5% gamma cyclodextrin were orally administered instead of BCAA and the like to give the Vehicle administration group. After 21 days from immunization, the muscle was collected, and the levels of inflammation of quadriceps and flexor muscles were evaluated by the inflammation score. […]"}, "[4]": {"tested_on": "C-protein-induced mouse myositis model (CIM mouse)", "assay": "Muscle weight (quadriceps, hamstring/flexor muscles, triceps) in CIM mouse", "assay_type": "in vivo", "settings": "21 days after immunization", "protocol": "as §1\nQuadriceps, flexor muscles and triceps were collected from the CIM mouse and control mouse (Ctrl) after 21 days from immunization, and the muscle weight was measured. […]\nQuadriceps, hamstrings, and triceps were collected from the CIM mouse and control mouse (Ctrl) of Example 5 after 21 days from the immunization, and the muscle weight was measured."}, "[5]": {"tested_on": "patients with polymyositis, dermatomyositis and inclusion body myositis", "settings": "cited from earlier work"}},
  "data": [
    {"compound": "C[C@]12C=CC(=O)C=C1CC[C@@H]1[C@@H]2[C@@H](O)C[C@@]2(C)[C@H]1CC[C@]2(O)C(=O)CO", "note": "[PSL, Prednisolone]", "values": [
      {"measurement": "distribution of fast muscle fiber sectional area (muscle fiber atrophy)", "setting": "[1]", "result": "tendency was stronger"},
      {"measurement": "strength of the forelimb muscle", "setting": "[2]; CIM mouse of Example 5, 0.25, 0.75 or 2.25 g/kg BCAA + 20 mg/kg PSL, or 20 mg/kg PSL alone, oral, FIG. 7", "result": "did not increase"},
      {"measurement": "muscle strength of the forelimb", "setting": "[2]; CIM mouse, 0.75 g/kg BCAA or 20 mg/kg PSL oral, FIG. 3", "result": "improvement effect was weak"},
      {"measurement": "inflammation score", "setting": "[3]", "result": "significantly suppressed"},
      {"measurement": "muscle weight", "setting": "[4]; CIM mouse of Example 5, 0.25, 0.75 or 2.25 g/kg BCAA + 20 mg/kg PSL, or 20 mg/kg PSL alone, oral, FIG. 6", "result": "did not increase"},
      {"measurement": "muscle weight", "setting": "[4]; CIM mouse, 0.75 g/kg BCAA or 20 mg/kg PSL oral, quadriceps, flexor muscles, triceps, FIG. 2", "result": "did not show improvement"}
    ]},
    {"compound": "Anakinra: IL-1 receptor antagonist", "values": [
      {"measurement": "anti-inflammatory effect", "setting": "[5]; polymyositis and dermatomyositis, Ann Rheum Dis. 2011;70:A80-A81", "result": "has not been observed"}
    ]},
    {"compound": "Infliximab: anti-TNF antibody effective for rheumatoid arthritis", "values": [
      {"measurement": "effect on inflammation in patients", "setting": "[5]; patients with polymyositis, dermatomyositis and inclusion body myositis, Ann Rheum Dis. 2008;67(12):1670-7", "result": "aggravation of inflammation and activation of type I interferons"}
    ]}
  ]
}
